Results published in patent publication US4661499A, “2-[(substituted)-phenoxymethyl]quinolines” (Merck Frosst Canada, Inc., priority 1985, dated 1987).

System: LTB4 formation
Experiment: Rat Peritoneal Polymorphonuclear (PMN) Leukocyte Assay (leukotriene inhibitor assay)
Type: cell-based
Conditions: A-23187 10 μM
Experimental: For example, 2-[4-(1-hydroxyhexylphenoxymethyl)]quinoline (see Example 1) was compared to its 3-(1-hydroxyhexylphenoxymethyl) analog in the PMN (leukotriene inhibitor) assay.
Rats under ether anesthesia are injected (i.p.) with 8 ml of a suspension of sodium cascinate (6 grams in ca. 50 ml water). After 15-24 hr. the rats are sacrificed (CO2) and the cells from the peritoneal cavity are recovered by lavage with 20 ml of buffer (Eagles MEM containing 30 mM HEPES adjusted to pH 7.4 with NaOH). The cells are pelleted (350×g, 5 min.), resuspended in buffer with vigorous shaking, filtered, through lens paper, recentrifuged and finally suspended in buffer at a concentration of […]. A 500 μl aliquot of PMN suspension and test compound are preincubated for 2 minutes at 37° C., followed by the addition of 10 μM A-23187. The suspension is stirred for an additional 4 minutes then bioassayed for […] content by adding an aliquot to a second 500 μl portion of the PMN at 37° C. The LTB4 produced in the first incubation causes aggregation of the second PMN, which is measured as a change in light transmission. The size of the assay aliquot is chosen to give a submaximal transmission change (usually -70%) for the untreated control. The percentage inhibition of LTB4 formation is calculated from the ratio of transmission change in the sample to the transmission change in the compound-free control.

Compound	% Inhibition of LTB4 formation (0.0016 μg/ml)	% Inhibition of LTB4 formation (0.008 μg/ml)	% Inhibition of LTB4 formation (0.04 μg/ml)	% Inhibition of LTB4 formation (0.2 μg/ml)	% Inhibition of LTB4 formation (1 μg/ml)	% Inhibition of LTB4 formation (5 μg/ml)
CCCCCC(O)c1ccc(OCc2ccc3ccccc3n2)cc1 (centres unmarked) [Example 1]	15%	49%	89%	100%	100%	100%
CCCCCC(O)c1cccc(OCc2ccc3ccccc3n2)c1 (centres unmarked) [Example 3-Analog, reference compound]	–	-1%	39%	100%	100%	100%
